Laboratory results published in patent US20260258035A1, “FIVE-MEMBERED AND SIX-MEMBERED NITROGEN-CONTAINING COMPOUND, AND INTERMEDIATE, PREPARATION METHOD AND USE THEREOF” (HANGZHOU SYNRX THERAPEUTICS BIOMEDICAL TECHNOLOGY CO., LTD., priority 2022, published 2026).
Where two headings read alike, the source gives them in different places.

Tests used:
HCC1806 = assay: Cell viability assay (CellTiter-Glo); type: cell-based, Human; details: HCC1806, 7 days, CellTiter-Glo, read-out: IC50 (nM) in cell viability assay
PARG = PARG (Homo sapiens, UniProt Q86W56); assay: Biochemical assay (PARG, TFMU-ADPr substrate)
[1] = 4 nM PARG, 66.2 uM TFMU-ADPr, 3 min at room temperature

PARG, sequence (Q86W56 whole entry): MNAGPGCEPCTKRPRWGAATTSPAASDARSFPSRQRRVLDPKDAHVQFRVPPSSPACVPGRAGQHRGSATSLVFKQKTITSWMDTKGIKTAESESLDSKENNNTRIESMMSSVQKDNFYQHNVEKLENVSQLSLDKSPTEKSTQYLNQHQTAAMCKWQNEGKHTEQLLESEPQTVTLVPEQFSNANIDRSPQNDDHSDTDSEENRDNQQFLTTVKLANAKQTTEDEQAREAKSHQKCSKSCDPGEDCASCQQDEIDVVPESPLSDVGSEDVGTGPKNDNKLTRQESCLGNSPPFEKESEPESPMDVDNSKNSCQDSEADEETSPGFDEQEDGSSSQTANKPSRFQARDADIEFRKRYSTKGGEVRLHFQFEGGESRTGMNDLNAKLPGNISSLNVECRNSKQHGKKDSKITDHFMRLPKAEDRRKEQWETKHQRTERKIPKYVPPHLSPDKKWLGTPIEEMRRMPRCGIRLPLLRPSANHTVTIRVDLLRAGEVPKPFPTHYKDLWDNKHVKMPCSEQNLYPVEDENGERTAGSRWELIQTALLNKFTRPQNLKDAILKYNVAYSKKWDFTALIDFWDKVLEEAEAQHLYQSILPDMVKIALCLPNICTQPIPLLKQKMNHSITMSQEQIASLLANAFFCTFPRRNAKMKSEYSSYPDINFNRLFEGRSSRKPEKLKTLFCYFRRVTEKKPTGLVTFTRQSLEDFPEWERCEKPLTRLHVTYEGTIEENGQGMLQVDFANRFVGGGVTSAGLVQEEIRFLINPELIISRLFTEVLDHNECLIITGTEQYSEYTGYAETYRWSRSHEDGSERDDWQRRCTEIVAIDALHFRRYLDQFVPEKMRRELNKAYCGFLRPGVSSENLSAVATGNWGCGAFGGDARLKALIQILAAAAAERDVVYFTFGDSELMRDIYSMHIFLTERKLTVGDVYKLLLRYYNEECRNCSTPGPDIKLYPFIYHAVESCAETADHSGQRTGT

Row | Structure (SMILES) | IC50 (HCC1806; Homo sapiens, HCC1806, 168 h) [nM] | IC50 (PARG; PARG, TFMU-ADPr substrate) [nM] | IC50 (HCC1806) [nM] | IC50 (PARG; [1]) [nM]
1 | CC(C)C(=O)N1CCN(c2cc(S(=O)(=O)NC3(C#N)CC3)cn3c(-c4nnc(C(F)(F)F)s4)nc(Cl)c23)C[C@H]1C [Example 130, (R)-1-chloro-N-(1-cyanocyclopropyl)-8-(4-isobutyryl-3-methylpiperazin-1-yl)-3-(5-(trifluoromethyl)-1,3,4-thiadiazol-2-yl)imidazo[1,5-a]pyridine-6-sulfonamide] | 1200 | 36.3 |  | 
2 | CC(C)C(=O)N1CCN(c2cc(S(=O)(=O)NC3CC3)cn3c(-c4nnc(C(F)F)s4)nc(Cl)c23)C[C@H]1C [Example 131, (R)-1-chloro-N-cyclopropyl-3-(5-(difluoromethyl)-1,3,4-thiadiazol-2-yl)-8-(4-isobutyryl-3-methylpiperazin-1-yl)imidazo[1,5-a]pyridine-6-sulfonamide] | 1680 | 22.9 |  | 
3 | COCC1CN(c2cc(S(=O)(=O)NC3(C)COC3)cn3c(-c4nnc(C(F)(F)F)s4)nc(Cl)c23)CCN1 (stereo not shown) [Example 135, 1-chloro-8-(3-(methoxymethyl)piperazin-1-yl)-N-(3-methyloxetan-3-yl)-3-(5-(trifluoromethyl)-1,3,4-thiadiazol-2-yl)imidazo[1,5-a]pyridine-6-sulfonamide] | 213 | 12.6 |  | 
4 | COCC1CN(c2cc(S(=O)(=O)NC3(CF)COC3)cn3c(-c4nnc(C(F)F)s4)nc(Cl)c23)CCN1 (stereo not shown) [Example 136, 1-chloro-3-(5-(difluoromethyl)-1,3,4-thiadiazol-2-yl)-N-(3-(fluoromethyl)oxetan-3-yl)-8-(3-(methoxymethyl)piperazin-1-yl)imidazo[1,5-a]pyridine-6-sulfonamide] | 199 | 7.94 |  | 
5 | CC(C)OCC1CN(c2cc(S(=O)(=O)NC3(C)COC3)cn3c(-c4nnc(C(F)F)s4)nc(Cl)c23)CCN1 (stereo not shown) [Example 137, 1-chloro-3-(5-(difluoromethyl)-1,3,4-thiadiazol-2-yl)-8-(3-(isopropoxymethyl)piperazin-1-yl)-N-(3-methyloxetan-3-yl)imidazo[1,5-a]pyridine-6-sulfonamide] | 332 | 15.8 |  | 
6 | C[C@@H]1CN(c2cc(S(=O)(=O)NC3(C#N)CC3)cn3c(-c4nnc(C(F)F)s4)ncc23)CCN1C(CO)C(F)(F)F (stereo partly drawn) [Example 144, N-(1-cyanocyclopropyl)-3-(5-(difluoromethyl)-1,3,4-thiadiazol-2-yl)-8-((3R)-3-methyl-4-(1,1,1-trifluoro-3-hydroxypropan-2-yl)piperazin-1-yl)imidazo[1,5-a]pyridine-6-sulfonamide] | 5000 to 30000 | 263 | 7020 | 100 to 500
7 | N#CC1(NS(=O)(=O)c2cc(N3CCN(C4COC4)CC3)c3cnc(-c4nnc(C(F)F)s4)n3c2)CC1 [Example 147, N-(1-cyanocyclopropyl)-3-(5-(difluoromethyl)-1,3,4-thiadiazol-2-yl)-8-(4-(oxetan-3-yl)piperazin-1-yl)imidazo[1,5-a]pyridine-6-sulfonamide] | 5000 to 30000 | 34.1 | 9940 | < 100
8 | [2H]c1nc(-c2nnc(C(F)(F)F)s2)n2cc(S(=O)(=O)NC3(C#N)CC3)cc(N3CCN(C(=O)C4CC4)CC3)c12 [Example 157, N-(1-cyanocyclopropyl)-8-(4-(cyclopropanecarbonyl)piperazin-1-yl)-3-(5-(trifluoromethyl)-1,3,4-thiadiazol-2-yl)imidazo[1,5-a]pyridine-6-sulfonamide-1-d] | 1020 | 33.1 |  | 
9 | [2H]c1nc(-c2nnc(C(F)F)s2)n2cc(S(=O)(=O)NC3(C)COC3)cc(N3CCNC(COC)C3)c12 (stereo not shown) [Example 158, 3-(5-(difluoromethyl)-1,3,4-thiadiazol-2-yl)-8-(3-(methoxymethyl)piperazin-1-yl)-N-(3-methyloxetan-3-yl)imidazo[1,5-a]pyridine-6-sulfonamide-1-d] | 1090 | 15.8 |  | 
10 | [2H]c1nc(-c2nnc(C(F)F)s2)n2cc(S(=O)(=O)NC3(C)COC3)cc(N3C[C@H](C)N[C@@H](C)C3)c12 [Example 160, 3-(5-(difluoromethyl)-1,3,4-thiadiazol-2-yl)-8-((3S,5S)-3,5-dimethylpiperazin-1-yl)-N-(3-methyloxetan-3-yl)imidazo[1,5-a]pyridine-6-sulfonamide-1-d] | 23.5 | 0.23 |  | 
11 | CC(C)C(=O)N1CCN(c2nc(S(=O)(=O)NC3(C)CC3)cn3c(-c4nnc(C(F)F)s4)ncc23)CC1 [Example 162, 3-(5-(difluoromethyl)-1,3,4-thiadiazol-2-yl)-8-(4-isobutyrylpiperazin-1-yl)-N-(1-methylcyclopropyl)imidazo[1,5-a]pyrazine-6-sulfonamide] | 5000 to 30000 | 525 | 6070 | 500 to 1000
12 | CC(C)C(=O)N1CCN(c2cc(S(=O)(=O)NC3(C)CC3)cn3c(-c4nnc(C(F)(F)F)s4)nc(C#N)c23)CC1 [Example 164, 1-cyano-8-(4-isobutyrylpiperazin-1-yl)-N-(1-methylcyclopropyl)-3-(5-(trifluoromethyl)-1,3,4-thiadiazol-2-yl)imidazo[1,5-a]pyridine-6-sulfonamide] | 100 | 3.31 |  | 
13 | CC(C)C(=O)N1CCN(c2cc(S(=O)(=O)NC3(C)CC3)cn3c(-c4nnc(C(F)F)s4)nc(C#N)c23)C[C@H]1C [Example 165, (R)-1-cyano-3-(5-(difluoromethyl)-1,3,4-thiadiazol-2-yl)-8-(4-isobutyryl-3-methylpiperazin-1-yl)-N-(1-methylcyclopropyl)imidazo[1,5-a]pyridine-6-sulfonamide] | 1000 | 20 |  | 
14 | CC(C)C(=O)N1CCN(c2cc(S(=O)(=O)NC3CC3)cn3c(-c4nnc(C(F)(F)F)s4)nc(C#N)c23)CC1 [Example 166, 1-cyano-N-cyclopropyl-8-(4-isobutyrylpiperazin-1-yl)-3-(5-(trifluoromethyl)-1,3,4-thiadiazol-2-yl)imidazo[1,5-a]pyridine-6-sulfonamide] | 882 | 13.2 |  | 
15 | [2H]C([2H])([2H])OC1(C(=O)N2CCN(c3cc(S(=O)(=O)NC4(C)CC4)cn4c(-c5nnc(C(F)(F)F)s5)ncc34)CC2)CC1 [Example 168, 8-(4-(1-(methoxy-d3)cyclopropane-1-carbonyl)piperazin-1-yl)-N-(1-methylcyclopropyl)-3-(5-(trifluoromethyl)-1,3,4-thiadiazol-2-yl)imidazo[1,5-a]pyridine-6-sulfonamide] | 14 | 0.15 |  | 
16 | Cc1nc(-c2nnc(C(F)F)s2)n2cc(S(=O)(=O)NC3(C)COC3)cc(N3CCC4(CC3)COC4)c12 [Example 169, 3-(5-(difluoromethyl)-1,3,4-thiadiazol-2-yl)-1-methyl-N-(3-methyloxetan-3-yl)-8-(2-oxa-7-azaspiro[3.5]nonan-7-yl)imidazo[1,5-a]pyridine-6-sulfonamide] | 27 | 1.82 |  | 
17 | Cc1nc(-c2nnc(C(F)F)s2)n2cc(S(=O)(=O)NC3(C#N)CC3)cc(N3CCN(C(=O)C(C)C)CC3)c12 [Example 170, N-(1-cyanocyclopropyl)-3-(5-(difluoromethyl)-1,3,4-thiadiazol-2-yl)-8-(4-isobutyrylpiperazin-1-yl)-1-methylimidazo[1,5-a]pyridine-6-sulfonamide] | 122 | 1.66 |  | 
18 | Cc1nc(-c2nnc(C(F)(F)F)s2)n2cc(S(=O)(=O)NC3(C)CC3)cc(N3CCN(C(=O)[C@H]4CCN4C)CC3)c12 [Example 171, (R)-1-methyl-8-(4-(1-methylazetidine-2-carbonyl)piperazin-1-yl)-N-(1-methylcyclopropyl)-3-(5-(trifluoromethyl)-1,3,4-thiadiazol-2-yl)imidazo[1,5-a]pyridine-6-sulfonamide] | 32 | 0.71 |  | 
19 | Cc1nc(-c2nnc(C(F)(F)F)s2)n2cc(S(=O)(=O)NC3(C#N)CC3)cc(N3CCN(C(=O)C4CCO4)CC3)c12 (stereo not shown) [Example 172, N-(1-cyanocyclopropyl)-1-methyl-8-(4-(oxetane-2-carbonyl)piperazin-1-yl)-3-(5-(trifluoromethyl)-1,3,4-thiadiazol-2-yl)imidazo[1,5-a]pyridine-6-sulfonamide] | 308 | 10 |  | 
20 | CC(=O)N1CCN(c2cc(S(=O)(=O)NC3(C#N)CC3)cn3c(-c4nnc(C(F)(F)F)s4)ncc23)CC1 [Example 173, 8-(4-acetylpiperazin-1-yl)-N-(1-cyanocyclopropyl)-3-(5-(trifluoromethyl)-1,3,4-thiadiazol-2-yl)imidazo[1,5-a]pyridine-6-sulfonamide] | 400 | 50.1 |  | 
21 | CC(C)C(=O)N1CCN(c2cc(S(=O)(=O)NC3(C)COC3)cn3c(-c4nnc(C(F)(F)F)s4)ncc23)C[C@H]1C [Example 174, (R)-8-(4-isobutyryl-3-methylpiperazin-1-yl)-N-(3-methyloxetan-3-yl)-3-(5-(trifluoromethyl)-1,3,4-thiadiazol-2-yl)imidazo[1,5-a]pyridine-6-sulfonamide] | 856 | 5.01 |  | 
22 | O=S(=O)(NC1(CF)COC1)c1cc(N2CCC3(CC2)COC3)c2cnc(-c3nnc(C(F)(F)F)s3)n2c1 [Example 176, N-(3-(fluoromethyl)oxetan-3-yl)-8-(2-oxa-7-azaspiro[3.5]nonan-7-yl)-3-(5-(trifluoromethyl)-1,3,4-thiadiazol-2-yl)imidazo[1,5-a]pyridine-6-sulfonamide] | 1340 | 4.37 |  | 
23 | COC1(C(=O)N2CCN(c3cc(S(=O)(=O)NC4(C)COC4)cn4c(-c5nnc(C(F)(F)F)s5)ncc34)CC2)CC1 [Example 177, 8-(4-(1-methoxycyclopropane-1-carbonyl)piperazin-1-yl)-N-(3-methyloxetan-3-yl)-3-(5-(trifluoromethyl)-1,3,4-thiadiazol-2-yl)imidazo[1,5-a]pyridine-6-sulfonamide] | 15 | 0.54 |  | 
